Columns and labels:
[1] = system: unresectable, locally advanced or metastatic biliary cancer; conditions: 28 patients with ≤1 prior systemic therapy; oral 60 mg twice daily; after at least 6 weeks of treatment; cited from earlier work
[2] = system: BRAFV600 or NRAS-mutant melanoma; conditions: patients with either BRAFV600 or NRAS-mutant melanoma; cited from earlier work
[3] = Solubility of Compound A in solvents and solvent mixtures; assay type: physicochemical
Method: Due to this low solubility, it is difficult to perform crystallization by standard cooling methods and to control crystal growth. […] This improvement in solubility contributes to an improvement in the purity profile of the final drug substance.
As discussed above, the crystallization process makes use of anti-solvent cooling system. In step d), water is added to the suspension or the cooled suspension mixture to provide a treated mixture. Water, which in general acts as an anti-solvent (solubility <0.01% over a wide temperature range), also unexpectedly acts as a solvent for Compound A when part of the water/methanol/tetrahydrofuran solvent system.

## Cn1cnc2c(F)c(Nc3ccc(Br)cc3F)c(C(=O)NOCCO)cc21 [Compound A, 6-(4-Bromo-2-fluorophenylamino)-7-fluoro-3-methyl-3H-benzoimidazole-5-carboxylic acid (2-hydroxyethyoxy)-amide]
[1]
  complete regression (number of patients): 1
  partial regression (number of patients): 1
  stable disease diagnoses (number of patients): 11
[2]
  effectiveness in treatment of patients: effective
[3]; 65° C., solubility decreases with further addition of water
  solvent mixture at which maximum solubility is reached: water (24%), methanol (38%), and tetrahydrofuran (38%)
[3]; room temperature
  solubility in most standard solvents: less than 1%
[3]; tetrahydrofuran and methanol with water, compared to methanol and tetrahydrofuran without water
  increase of solubility on addition of water to solvent mixture: approximately 50%
[3]; water, broad/wide temperature range
  solubility in water (anti-solvent): < 0.01%
